Laboratory results taken from US10912843B2, “Endoplasmic reticulum-targeting nanovehicles and methods for use thereof” (National Cheng Kung University, priority 2018, dated 2021).

Columns and labels:
[1] = system: differentiated HL-60 cells; assay: Curcumin-induced extracellular calcium influx; assay type: cell-based
Description: Extracellular calcium influx, which is triggered by the depletion of ER calcium stores, was measured in cells treated with free curcumin or treated with curcumin-loaded nanoparticles as follows. Differentiated HL-60 cells were pretreated with free curcumin (10 μM), curcumin-loaded PLGA nanoparticles (0.5 μM), and curcumin-loaded ER-targeted PLGA nanoparticles (0.5 μM) at 37° C. overnight. Cells were washed with calcium-free HBSS, seeded on poly-lysine coated 8-well slides (ibidi, Planegg, Germany) at a density of 1×10^6 cells/ml, and incubated at 37° C. for 30 min. Cells were labeled with 2 μM of the calcium-sensitive fluorescent dye Fluo-4 AM and 1 μM of ER-tracker at 37° C. for 30 min. Labeled cells were treated with 1.25 mM CaCl2. Fluorescence images were captured by confocal microscopy every 10 s for 5 min. following the addition of CaCl2. Fluorescence intensities in these images were analyzed using ImageJ software. The change in fluorescence intensity over time divided by the baseline fluorescence intensity prior to calcium addition (ΔF/FO) was plotted versus time, and the rate of calcium level increase (ΔF/F/s) was derived from that plot. The overall calcium flux was calculated as the area under the curve (AUC) of a ΔF/F/s versus time curve.

[2] = system: differentiated HL-60 cells; assay: Mitochondrial membrane potential (TMRM, flow cytometry); assay type: cell-based; settings: 10 μM, 24 hours; FIG. 5A
Description: As mentioned above, it has been shown that curcumin is cytotoxic, as it induces ER stress and apoptosis. The cytotoxicity of free curcumin was compared to that of encapsulated curcumin by measuring in treated cells mitochondrial membrane potential (one measure of cytotoxicity), apoptotic markers, and ER stress-related protein expression.
(§1) Differentiated HL-60 cells were treated with 0.5 μM or 10 μM free curcumin, curcumin-loaded PLGA nanoparticles, or curcumin-loaded ER-targeted PLGA nanoparticles for 24 hours. Treated cells were labeled with 250 nM of the mitochondrial membrane potential indicator dye tetramethylrhodamine (TMRM) at 37° C. for 30 min. TMRM-labeled cells were analyzed by flow cytometry and their mitochondrial membrane potentials quantified using the Flowing Software 2 software package.

[3] = system: human peripheral blood hematopoietic cells (HSCs); assay: Erythroblast differentiation (CD71 / CD235a flow cytometry); assay type: cell-based; settings: FIG. 6A
Description: Erythroblast differentiation was measured in human peripheral blood hematopoietic cells (HSCs) treated with free curcumin or treated with curcumin-loaded nanoparticles as follows. Human CD34^+ HSCs were cultured in Iscove's modified Dulbecco medium containing 15% heat-inactivated fetal calf serum, 2 U/ml of recombinant human erythropoietin, 20 ng/ml of stem cell factor, and 10 ng/ml of interleukin-3 (IL-3). On day 4, the medium was replaced with fresh medium without IL-3 and the HSCs were cultured for another 5 days. The maturation of erythroblasts was analyzed by detecting the surface expression of CD71 and CD235a with flow cytometry.

H338Y-gp91^phox protein = assay: Expression and maturation of H338Y-gp91^phox protein in neutrophils of treated transgenic mice (Western blot); assay type: in vivo, mouse; settings: Cybb^C1024T transgenic Cybb^-/- mice, treated 24 hours, 20 mg/kg of curcumin
Description: The expression of H338Y-gp91^phox protein in neutrophils from the Cybb^C1024T transgenic Cybb^−/− mice was examined by SDS-PAGE and Western blotting with an anti-gp91^phox antibody. To isolate neutrophils, mice were injected intraperitoneally with 3 ml of 3% thioglycollate to elicit peritoneal neutrophils. Four hours later, the mice were sacrificed, and the peritoneal cavity was washed twice with 5 ml of Hanks buffered salt solution (HBSS) with 2 mM ethylene glycol tetraacetic acid to collect the elicited peritoneal neutrophils. Peritoneal neutrophils were then washed with PBS before use.
Curcumin-loaded PLGA nanoparticles with or without the ER-targeting KDEL peptide were tested for their effects on the expression and maturation of H338Y-gp91^phox protein in Cybb^C1024T transgenic Cybb^−/− mice. Briefly, mice were untreated or treated separately with free curcumin, curcumin-loaded PLGA nanoparticles, or curcumin-loaded ER-targeted PLGA nanoparticles for 24 hours in amounts corresponding to 20 mg/kg of curcumin. Neutrophils from the mice were elicited, isolated, and analyzed for expression of H338Y-gp91^phox protein as described above.
Statistical analyses were carried out with Prism software (GraphPad Software). […]

[4] = system: differentiated HL-60 cells; assay: Detection of apoptotic cells (Annexin V / 7-AAD); assay type: cell-based; settings: 10 μM, 24 hours; FIG. 5B
Description: as §1
Cells treated as above with free or encapsulated curcumin were washed with ice-cold phosphate-buffered saline and stained with phycoerythrin-Annexin V and 7 amino-actinomycin D (7-AAD) at room temperature for 15 min. Annexin V binds to the surface of cells undergoing apoptosis, and 7-AAD only enters and stains apoptotic cells. Stained cells were subjected to flow cytometry analysis and the results analyzed using the Flowing Software 2 analysis package.

[5] = system: differentiated HL-60 cells; assay: ER stress response and caspase-3 cleavage (Western blot); assay type: cell-based; settings: 10 μM
Description: To determine whether the activation of the ER stress response is involved in curcumin-induced apoptosis, the levels of ER stress markers Bip and phosphorylated ERK, as well as the level of cleaved Caspase-3, a marker of apoptosis, were quantified by Western blot analysis of cells treated with 10 μM curcumin or encapsulated curcumin.
Briefly, treated cells were lysed in 100 μl of lysis buffer (1% Triton-X100, 150 mM NaCl, 10 mM Tris base, 1 mM EDTA, 1 mM EGTA, 50×protease inhibitor cocktail, pH 7.4). Lysed samples were subjected to 10% SDS-PAGE and transferred to membranes for Western Blot analysis using antibodies that bind to Bip, phospho-ERK, total ERK, cleaved caspase-3, and β-actin. Binding of these antibodies was visualized using commercially available enhanced chemiluminescence reagents. Chemiluminescent signals were quantified from images using ImageJ software.

[6] = system: differentiated HL-60 cells; assay: Curcumin-induced intracellular calcium release (Fluo-4AM); assay type: cell-based; settings: 10 μM
Description: SERCA inhibitors such as curcumin cause an increase in intracellular calcium release from the ER. The ability of curcumin to induce calcium release was compared to that of PLGA nanoparticle-encapsulated curcumin. Differentiated HL-60 cells were seeded on 8-well slides in calcium-free medium and loaded with the intracellular calcium-sensitive indicator dye Fluo-4AM. Cells were treated with thapsigargin (positive control) or treated with 0.5, 1, or 10 μM curcumin, curcumin-loaded PLGA nanoparticles, or curcumin-loaded ER-targeted PLGA nanoparticles. Fluorescence intensity over time was measured in treated cells by confocal microscopy and analyzed using ImageJ software. The change in fluorescence intensity over time divided by the baseline fluorescence intensity prior to calcium addition (ΔF/FO) was plotted versus time.

mitochondrial membrane potential compared with control untreated cells [2]	ERK phosphorylation compared with untreated control cells ([5]; FIG. 5C center panel)	Bip expression compared with untreated control cells ([5]; FIG. 5C left panel)	SMILES	time to calcium influx after addition ([1]; positive control, 1.25 mM extracellular calcium) [s]	calcium influx rate 20 s after treatment, compared with 0.5 μM curcumin-loaded nanoparticles ([1]; 10 μM)	percentages of more mature CD71^low CD235^high cells in treated HSCs [3]	expression of glycosylated H338Y-gp91^phox as compared to untreated mice (H338Y-gp91^phox protein)	number of apoptotic cells (Annexin V binding) [4]	rate of intracellular calcium increase, compared with lower concentrations of free curcumin [6]	level of calcium release, compared with 0.5 μM and 1 μM free curcumin ([6]; calcium-free medium, 40, 50 and 60 s after treatment)
			C/C=C(/C)C(=O)O[C@H]1C(C)=C2[C@H]([C@@H]1OC(=O)CCCCCCC)[C@@](C)(OC(C)=O)C[C@H](OC(=O)CCC)[C@@]1(O)[C@H]2OC(=O)[C@@]1(C)O [Thapsigargin, thapsigargin]	≤ 10						
significant reduction	increased	increased	COc1cc(/C=C/C(=O)CC(=O)/C=C/c2ccc(O)c(OC)c2)ccc1O [free curcumin, curcumin]		significantly higher	significantly enhanced	did not show any change	significant increase	highest	significantly higher
